Results on five compounds are retold here after US20260015350A1, “AZAQUINAZOLINE PAN-KRAS INHIBITORS” (Mirati Therapeutics, Inc., priority 2022, published 2026).

SMILES strings stand for the structures. A value given as a limit tells only on which side of the number the result lay.

Assay [1] deals with KRas-mediated phosphorylation of ERK in H460 cells. Nature of the assay: Inhibition of KRas-mediated phosphorylation of ERK (Cisbio HTRF pERK), H460 cells. The class given is cell-based. The settings on record: Homo sapiens; for IC50: NCI-H460, HTRF pERK; for inhibition at 0.1 µM: NCI-H460, 3 h, single point, 100 nM compound, 3 hrs. In a few lines: (§1)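 HTRF readout of phospho-ERK in cell lysates after 3 hrs of compound exposure. Dosing: 10 uM top, 3-fold steps, 10 doses, final DMSO 0.8%. Min control: 0.2 uM Trametinib. Lysis ran 40 mins at 4° C, and antibody detection 2 hrs at room temperature.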
Background: Time-resolved FRET reads energy transfer from a long-lived donor to a nearby acceptor.

Assay [2] has as its system KRas-mediated phosphorylation of ERK in PSN1 cells. Nature of the assay: Inhibition of KRas-mediated phosphorylation of ERK (Cisbio HTRF pERK), PSN1 cells. The settings on record: Homo sapiens. The class given is cell-based. A digest of the protocol: (§2)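 HTRF pERK read-out; 6,000 cells/well, RPMI_10% FBS, overnight 37° C./5% CO2; 4 h covered incubation at RT before reading.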

The target of a further assay is T1, KRas^G12D (Homo sapiens, UniProt P01116, G12D).
T1 construct: Biotinylated KRas (corresponding to amino acids 1-169, produced at Accelegan Inc.); biotin (biotinylated); purchased Accelegan Inc
T1 sequence (P01116 1-169 isoform P01116-2 G12D): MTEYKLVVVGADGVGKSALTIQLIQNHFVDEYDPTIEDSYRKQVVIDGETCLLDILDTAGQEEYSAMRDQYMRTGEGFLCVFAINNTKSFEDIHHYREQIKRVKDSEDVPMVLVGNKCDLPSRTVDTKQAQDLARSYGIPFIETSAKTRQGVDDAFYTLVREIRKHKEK
Nature of the assay: KRas binding assay (TR-FRET tracer displacement), KRas G12D.

For the next assay, the target named is T2, KRas^G12A (Homo sapiens, UniProt P01116, G12A).
T2 construct: Biotinylated KRas (corresponding to amino acids 1-169, produced at Accelegan Inc.); biotin (biotinylated); purchased Accelegan Inc
T2 sequence (P01116 1-169 isoform P01116-2 G12A): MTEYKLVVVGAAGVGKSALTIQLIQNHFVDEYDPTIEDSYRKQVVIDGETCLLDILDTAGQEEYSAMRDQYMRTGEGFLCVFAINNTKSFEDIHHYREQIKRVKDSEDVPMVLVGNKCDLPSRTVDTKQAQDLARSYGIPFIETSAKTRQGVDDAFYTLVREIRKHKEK
The assay is described as follows: KRas binding assay (TR-FRET tracer displacement), KRas G12A. The settings on record: for inhibition at 0.01 µM: single point, 10 nM compound, TR-FRET; for IC50: TR-FRET tracer displacement, KRas G12A.

Assay [3] deals with KRas-mediated phosphorylation of ERK in MKN1 cells. Nature of the assay: Inhibition of KRas-mediated phosphorylation of ERK (Cisbio HTRF pERK), MKN1 cells. It is filed as cell-based. The settings on record: Homo sapiens, MKN-1. In a few lines:
as §2

The next assay addresses T3, KRas^G13D (Homo sapiens, UniProt P01116, G13D).
T3 construct: Biotinylated KRas (corresponding to amino acids 1-169, produced at Accelegan Inc.); biotin (biotinylated); purchased Accelegan Inc
The assay is described as follows: KRas binding assay (TR-FRET tracer displacement), KRas G13D. The settings on record: for inhibition at 0.01 µM: single point, 10 nM compound, TR-FRET; for IC50: TR-FRET tracer displacement, KRas G13D.

The target of the next assay is T4, KRas^Q61H (Homo sapiens, UniProt P01116, Q61H).
T4 construct: Biotinylated KRas (corresponding to amino acids 1-169, produced at Accelegan Inc.); biotin (biotinylated); purchased Accelegan Inc
T4 sequence (P01116 1-169 isoform P01116-2 Q61H): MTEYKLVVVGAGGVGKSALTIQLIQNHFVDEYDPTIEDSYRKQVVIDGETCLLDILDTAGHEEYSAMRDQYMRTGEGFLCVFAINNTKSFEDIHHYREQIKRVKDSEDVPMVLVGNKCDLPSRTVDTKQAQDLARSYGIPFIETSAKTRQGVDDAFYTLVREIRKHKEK
The assay is described as follows: KRas binding assay (TR-FRET tracer displacement), KRas Q61H. The settings on record: for inhibition at 0.01 µM: single point, 10 nM compound, TR-FRET; for IC50: TR-FRET tracer displacement, KRas Q61H.

For assay [4], the system named is KRas-mediated phosphorylation of ERK in AsPC-1 cells. The assay is described as follows: Inhibition of KRas-mediated phosphorylation of ERK (Cisbio HTRF pERK), AsPC-1 cells. The class given is cell-based. Particulars: Homo sapiens, ASPC1, AsPC-1 cells; HTRF pERK. A digest of the protocol: as §1
The target of a further assay is T5, KRas^G12C (Homo sapiens, UniProt P01116, G12C).
T5 construct: Biotinylated KRas (corresponding to amino acids 1-169, produced at Accelegan Inc.); biotin (biotinylated); purchased Accelegan Inc
T5 sequence (P01116 1-169 isoform P01116-2 G12C): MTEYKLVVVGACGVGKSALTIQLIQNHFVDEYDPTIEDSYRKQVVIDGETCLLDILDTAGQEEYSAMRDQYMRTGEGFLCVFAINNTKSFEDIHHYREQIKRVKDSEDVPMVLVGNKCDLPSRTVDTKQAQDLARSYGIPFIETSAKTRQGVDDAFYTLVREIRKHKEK
The assay is described as follows: KRas binding assay (TR-FRET tracer displacement), KRas G12C. Particulars: for inhibition at 0.01 µM: single point, 10 nM compound, TR-FRET; for IC50: TR-FRET tracer displacement, KRas G12C.

In another assay the target is T6, KRas^WT (Homo sapiens, UniProt P01116).
T6 construct: Biotinylated KRas (corresponding to amino acids 1-169, produced at Accelegan Inc.); biotin (biotinylated); purchased Accelegan Inc
T6 sequence (P01116 1-169 isoform P01116-2): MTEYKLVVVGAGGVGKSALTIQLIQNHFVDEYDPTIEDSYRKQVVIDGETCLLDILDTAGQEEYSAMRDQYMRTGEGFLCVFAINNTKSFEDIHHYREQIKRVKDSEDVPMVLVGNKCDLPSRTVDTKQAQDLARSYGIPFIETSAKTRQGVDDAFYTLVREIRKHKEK
The assay is described as follows: KRas binding assay (TR-FRET tracer displacement), KRas WT. The settings on record: for inhibition at 0.01 µM: single point, 10 nM compound, TR-FRET; for IC50: TR-FRET tracer displacement, KRas WT.

The next assay has as its target T7, KRas^G12V (Homo sapiens, UniProt P01116, G12V).
T7 construct: Biotinylated KRas (corresponding to amino acids 1-169, produced at Accelegan Inc.); biotin (biotinylated); purchased Accelegan Inc
Nature of the assay: KRas binding assay (TR-FRET tracer displacement), KRas G12V.

Assay [5] relates to KRas-mediated phosphorylation of ERK in H358 cells. Nature of the assay: Inhibition of KRas-mediated phosphorylation of ERK (Cisbio HTRF pERK), H358 cells. It is filed as cell-based. The settings on record: Homo sapiens; for inhibition at 0.1 µM: NCI-H358, 3 h, single point, 100 nM compound, 3 hrs; for IC50: NCI-H358, HTRF pERK. A digest of the protocol:
as §1

Assay [6] deals with KRas-mediated phosphorylation of ERK in A549 cells. The assay is described as follows: Inhibition of KRas-mediated phosphorylation of ERK (Cisbio HTRF pERK), A549 cells. The class given is cell-based. Particulars: Homo sapiens; for inhibition at 0.1 µM: A549, 3 h, single point, 100 nM compound, 3 hrs; for IC50: HTRF pERK. In a few lines: (§3)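 Phosphorylated ERK was quantified by HTRF using d2-conjugate and Cryptate antibodies added to lysates for 2 hrs at room temperature.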

The next assay concerns the target T8, KRas^G12S (Homo sapiens, UniProt P01116, G12S).
T8 construct: Biotinylated KRas (corresponding to amino acids 1-169, produced at Accelegan Inc.); biotin (biotinylated); purchased Accelegan Inc
Nature of the assay: KRas binding assay (TR-FRET tracer displacement), KRas G12S. The settings on record: for inhibition at 0.01 µM: single point, 10 nM compound, TR-FRET; for IC50: TR-FRET tracer displacement, KRas G12S.

Assay [7] has as its system KRas-mediated phosphorylation of ERK in HCT116 cells. The assay is described as follows: Inhibition of KRas-mediated phosphorylation of ERK (Cisbio HTRF pERK), HCT116 cells. Particulars: Homo sapiens; for IC50: HCT-116, HTRF pERK; for inhibition at 0.1 µM: HCT-116, 3 h, single point, 100 nM compound, 3 hrs. The class given is cell-based. In a few lines: as §3
Another assay concerns the target T9, KRas^G12R (Homo sapiens, UniProt P01116, G12R).
T9 construct: Biotinylated KRas (corresponding to amino acids 1-169, produced at Accelegan Inc.); biotin (biotinylated); purchased Accelegan Inc
The assay is described as follows: KRas binding assay (TR-FRET tracer displacement), KRas G12R.

For assay [8], the system named is KRas-mediated phosphorylation of ERK in H727 cells. The assay is described as follows: Inhibition of KRas-mediated phosphorylation of ERK (Cisbio HTRF pERK), H727 cells. The class given is cell-based. Particulars: Homo sapiens, NCI-H727, H727 cells; HTRF pERK. A digest of the protocol:
as §1

T8 sequence (P01116 1-169 isoform P01116-2 G12S): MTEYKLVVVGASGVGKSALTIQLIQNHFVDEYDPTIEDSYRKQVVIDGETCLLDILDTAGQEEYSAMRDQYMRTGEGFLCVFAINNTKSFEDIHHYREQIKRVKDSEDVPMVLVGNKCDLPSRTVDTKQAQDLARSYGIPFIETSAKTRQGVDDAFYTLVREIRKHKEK
T9 sequence (P01116 1-169 isoform P01116-2 G12R): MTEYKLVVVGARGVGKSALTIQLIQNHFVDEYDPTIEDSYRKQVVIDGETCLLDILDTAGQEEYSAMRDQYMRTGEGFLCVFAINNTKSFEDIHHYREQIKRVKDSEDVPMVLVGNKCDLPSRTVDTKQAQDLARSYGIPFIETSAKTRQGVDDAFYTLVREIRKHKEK
T3 sequence (P01116 1-169 isoform P01116-2 G13D): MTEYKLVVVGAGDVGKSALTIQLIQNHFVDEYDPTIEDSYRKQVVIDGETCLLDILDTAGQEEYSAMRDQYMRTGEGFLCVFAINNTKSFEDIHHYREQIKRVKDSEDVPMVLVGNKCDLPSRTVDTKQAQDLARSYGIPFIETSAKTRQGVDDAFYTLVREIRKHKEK
T7 sequence (P01116 1-169 isoform P01116-2 G12V): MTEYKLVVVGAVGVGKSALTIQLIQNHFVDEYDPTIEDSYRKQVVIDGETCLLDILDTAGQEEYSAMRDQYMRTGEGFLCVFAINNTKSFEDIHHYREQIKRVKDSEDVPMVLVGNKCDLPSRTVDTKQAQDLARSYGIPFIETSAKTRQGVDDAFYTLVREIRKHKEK

As to `CCc1c(F)ccc2cc(O)cc(-c3ncc4c(N5CCCn6nc(C(=O)N(C)C)cc6C5)nc(OC[C@]56CCCN5[C@H](COC(=O)N(C)C)CC6)nc4c3F)c12` [Example 714, ((3S,7aR)-7a-(((4-(2-(dimethylcarbamoyl)-7,8-dihydro-4H-pyrazolo[1,5-a][1,4]diazepin-5(6H)-yl)-7-(8-ethyl-7-fluoro-3-hydroxynaphthalen-1-yl)-8-fluoropyrido[4,3-d]pyrimidin-2-yl)oxy)methyl)hexahydro-1H-pyrrolizin-3-yl)methyl dimethylcarbamate], the IC50 (usually the midpoint of a concentration-inhibition curve) in [1] was 193 nM; in [2] it was over 10000 nM; at KRas^G12D, under 2 nM; in [3] it was 95 nM; in [4] it was 26 nM; at KRas^G12V, under 2 nM. The values for the IC50 (in [7]; on KRas^G12R; in assay [8]) were 760 nM, 2 nM and 89 nM, respectively. Further, the inhibition (as a rule, how much of the control response was suppressed) at 0.01 µM was found to be 89% at KRas^G12A; 85% at KRas^G13D; 87% on KRas^Q61H; 94% at KRas^G12C; 85% on KRas^WT; 95% on KRas^G12S. Also, the inhibition at 0.1 µM is 73% in [5] and 16% in assay [6].
For the compound `CCc1c(F)ccc2cc(O)cc(-c3ncc4c(N5CCCn6nc(C(=O)N(C)C)c(C)c6C5)nc(OC[C@@]56CCCN5C[C@H](F)C6)nc4c3F)c12` [Example 670, 5-(7-(8-ethyl-7-fluoro-3-hydroxynaphthalen-1-yl)-8-fluoro-2-(((2R,7aS)-2-fluorotetrahydro-1H-pyrrolizin-7a(5H)-yl)methoxy)pyrido[4,3-d]pyrimidin-4-yl)-N,N,3-trimethyl-5,6,7,8-tetrahydro-4H-pyrazolo[1,5-a][1,4]diazepine-2-carboxamide], the IC50 in assay [1] was 17 nM; in assay [2], 4680 nM; at KRas^G12D it was under 2 nM; in [3] it was 2 nM; in [4], 2 nM; at KRas^G12V, under 2 nM. The IC50 in assay [5] is 1 nM; in [6], 9 nM; in [7], 53 nM; at KRas^G12R it was under 2 nM; in [8], 5 nM. The inhibition at 0.01 µM came to 98% at KRas^G12A; 98% on KRas^G13D; 97% on KRas^Q61H; 99% on KRas^G12C; 98% on KRas^WT; 100% at KRas^G12S.
As for `CCc1cccc2cc3[nH]ncc3c(-c3ncc4c(N5CCCC6(C5)NC(=O)NC6=O)nc(OC[C@@]56CCCN5C[C@H](F)C6)nc4c3F)c12` (stereo partly drawn) [Example 768, 7-(7-(5-ethyl-1H-benzo[f]indazol-4-yl)-8-fluoro-2-(((2R,7aS)-2-fluorohexahydro-1H-pyrrolizin-7a-yl)methoxy)pyrido[4,3-d]pyrimidin-4-yl)-1,3,7-triazaspiro[4.5]decane-2,4-dione], the inhibition at 0.1 µM in [1] came out at 23%; in [5], 59%; in [6], 30%; in [7], 8%. In addition, the IC50 was 184 nM in [1]; over 10000 nM in assay [2]; 3 nM on KRas^G12D; under 2 nM on KRas^G12A; 22 nM in assay [3]; under 2 nM on KRas^G13D. Moreover, the half-maximal inhibitory concentration (IC50) at KRas^Q61H was under 2 nM; in assay [4], 434 nM; at KRas^G12C, under 2 nM; on KRas^WT it was under 2 nM; at KRas^G12V, under 2 nM; in assay [5], 38 nM. The IC50 in assay [6] was 708 nM; on KRas^G12S it was under 2 nM; in assay [7] it was 397 nM; at KRas^G12R it was under 2 nM; in assay [8], 275 nM.
`Oc1cc(-c2ncc3c(N4CCCC5(CCO5)C4)nc(OC[C@@]45CCCN4C[C@H](F)C5)nc3c2F)c2c(Cl)c(F)ccc2c1` (stereo partly drawn) [Example 773, 5-chloro-6-fluoro-4-(8-fluoro-2-(((2R,7aS)-2-fluorotetrahydro-1H-pyrrolizin-7a(5H)-yl)methoxy)-4-(1-oxa-6-azaspiro[3.5]nonan-6-yl)pyrido[4,3-d]pyrimidin-7-yl)naphthalen-2-ol]: the inhibition at 0.1 µM in assay [1] was found to be 96%; in assay [5], 99%; in assay [6], 97%; in assay [7], 90%. Also, the IC50 in assay [1] was 10 nM; in assay [2], 2680 nM; on KRas^G12D, 3 nM; in assay [3] it was 4 nM; in assay [4], 7 nM; at KRas^G12V, under 2 nM. The IC50 in [5] amounted to 3 nM; in assay [6], 8 nM; in assay [7], 18 nM; at KRas^G12R, 2 nM; in [8], 8 nM. For the same compound, the inhibition at 0.01 µM on KRas^G12A is 86%; on KRas^G13D, 94%; at KRas^Q61H it was 95%; at KRas^G12C, 95%; on KRas^WT, 90%; on KRas^G12S it was 92%.
For `Oc1cc(-c2ncc3c(N4C[C@@H]5C[C@H](C4)[C@H](O)C5)nc(OC[C@@]45CCCN4C[C@H](F)C5)nc3c2F)c2ccccc2c1` [Example 737, (1R,5R,6R)-3-(8-fluoro-2-(((2R,7aS)-2-fluorohexahydro-1H-pyrrolizin-7a-yl)methoxy)-7-(3-hydroxynaphthalen-1-yl)pyrido[4,3-d]pyrimidin-4-yl)-3-azabicyclo[3.2.1]octan-6-ol], the inhibition at 0.1 µM in assay [1] turned out to be 27%; in assay [5] it was 8%; in assay [6], 17%; in assay [7], 39%. In addition, the IC50 in assay [2] came to 7190 nM; at KRas^G12D it was 13 nM; at KRas^G12A it was 10 nM; in assay [3], 9 nM; on KRas^G13D it was 12 nM; on KRas^Q61H, 14 nM. Further, the IC50 in assay [4] came out at 420 nM; on KRas^G12C, 10 nM; on KRas^WT, 13 nM; on KRas^G12V it was 5 nM; on KRas^G12S, 8 nM; at KRas^G12R, 7 nM. 79 nM corresponded to half-maximal inhibition in assay [8] (IC50). Besides, the inhibition at 0.01 µM was determined as 47% on KRas^G12A; 53% on KRas^G13D; 46% at KRas^Q61H; 53% on KRas^G12C; 44% on KRas^WT; 60% at KRas^G12S.
